According to patent US8420144B2, “Kokumi-imparting agent, method of using, and compositions containing same” (Ajinomoto Co., Inc., priority 2005, dated 2013):
Numbered stars: 1 amine (or outer) side, 2 acyl side, 3 side chain; on linkers, the order of the positions; unused ones are H or OH. Square brackets hold non-standard residues; d marks the D form. Peptide text beside a SMILES is read from it. γGlu = O=C(O)[C@H](CCC(=O)[*:2])N[*:1]; Tle = CC(C)(C)[C@H](N)C(=O)O

Assays:
[1] = molecular target: T1, human CaSR (Homo sapiens, UniProt P41180); assay: Calcium receptor (CaSR) activation activity: calcium imaging in HEK 293 cells expressing human CaSR; assay type: cell-based; settings: concentration giving 50% of the maximal activity; single values n = 1, others n = 2 or 3
T1 construct: expressed in transfected cells; host or cells: HEK 293 cells, transient transfection of a CMV-promoter expression vector
T1 sequence (P41180 20-1078): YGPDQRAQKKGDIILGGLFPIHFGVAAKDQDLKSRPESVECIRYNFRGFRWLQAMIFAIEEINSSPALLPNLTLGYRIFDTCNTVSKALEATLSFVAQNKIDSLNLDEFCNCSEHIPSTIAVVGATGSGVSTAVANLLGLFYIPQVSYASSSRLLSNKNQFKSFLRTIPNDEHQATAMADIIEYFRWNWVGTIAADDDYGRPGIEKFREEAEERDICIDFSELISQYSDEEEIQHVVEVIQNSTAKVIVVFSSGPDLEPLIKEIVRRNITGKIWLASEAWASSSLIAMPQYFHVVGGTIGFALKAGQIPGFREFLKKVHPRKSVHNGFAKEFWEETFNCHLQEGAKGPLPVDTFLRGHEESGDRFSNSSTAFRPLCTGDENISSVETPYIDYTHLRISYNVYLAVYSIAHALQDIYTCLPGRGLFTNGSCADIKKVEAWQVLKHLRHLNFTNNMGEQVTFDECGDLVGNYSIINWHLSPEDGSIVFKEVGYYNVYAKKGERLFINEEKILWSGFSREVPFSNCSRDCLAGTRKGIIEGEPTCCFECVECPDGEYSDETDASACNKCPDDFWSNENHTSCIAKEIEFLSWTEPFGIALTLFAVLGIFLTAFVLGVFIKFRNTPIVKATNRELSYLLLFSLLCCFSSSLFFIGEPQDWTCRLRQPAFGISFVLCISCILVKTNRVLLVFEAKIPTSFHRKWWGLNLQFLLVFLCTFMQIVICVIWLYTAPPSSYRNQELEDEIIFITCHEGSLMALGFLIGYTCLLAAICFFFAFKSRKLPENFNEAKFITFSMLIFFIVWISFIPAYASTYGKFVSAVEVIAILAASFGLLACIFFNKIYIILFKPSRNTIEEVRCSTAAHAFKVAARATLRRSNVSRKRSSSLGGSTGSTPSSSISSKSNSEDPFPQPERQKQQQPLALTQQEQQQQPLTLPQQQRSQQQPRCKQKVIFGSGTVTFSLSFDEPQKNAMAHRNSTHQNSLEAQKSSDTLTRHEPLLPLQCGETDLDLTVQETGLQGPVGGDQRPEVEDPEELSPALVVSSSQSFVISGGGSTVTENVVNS
Method: Calcium receptor (CaSR) activation activity of peptides obtained in Examples 2, 3, and 5-12 were measured as follows. A cDNA of human CaSR obtained in Example 1 of WO2007/055393A1 was inserted into an expression vector for an animal cell having a CMV promoter, and the cDNA in the vector was introduced into HEK 293 cells, which had multiplied to 70% of the maximal cell density, using FuGINE6 (Roche Ltd.). After culturing the cells for 4 to 48 hours, 0.6-1.0×10^5 of cells/well were disseminated into a 96-well plate, subsequently, the cells were cultured for one day, and then stained using Calcium 3 Assay Kit. The presence or absence of a calcium receptor activation activity of each peptide was confirmed by a calcium imaging method using FLEXSTATION (Molecular Devices Inc., instruction manual). Furthermore, the concentration of each peptide giving 50% of the maximal activity (EC50) was calculated using a dose characteristic curve.

[2] = Quantitative sensory evaluation test: kokumi-imparting activity of peptides combined with known calcium receptor activators or additives; assay type: in vivo, human; settings: alone; for Intensity of kokumi: Aftertaste / Intensity of kokumi: First and middle taste: n=12, 0 control, 3 intense, 6 extremely intense
Method: The intensity of the kokumi-imparting activity of each peptide having confirmed calcium receptor activation activity and a known calcium receptor activator used in combination was measured by a quantitative sensory evaluation test, performed as follows: Samples of γ-Glu-Cys-Gly (glutathione) or γ-Glu-Val-Gly (0.0001 to 1 g/dl), or these samples combined with a calcium receptor activator such as calcium lactate, protamine or polylysine, or GABA (addition concentration: 0.0001 to 1 g/dl) were added to distilled water containing sodium glutamate (0.05 g/dl), inosine monophosphate (0.05 g/dl), and sodium chloride (0.5 g/dl), and the intensity of the kokumi-imparting activity was measured. Sample solutions that became acidic after dissolution of the samples were adjusted to pH 6.8 to 7.2 with NaOH before use. Sensory evaluation scores were used to evaluate as follows: 0 points for the control sample, 3 points for intense activity (as intensity of 0.05 g/dl γ-Glu-Cys-Gly and 0.005 g/dl γ-Glu-Val-Gly), and 6 points for extremely intense activity (as twice intensity of 0.05 g/dl γ-Glu-Cys-Gly and 0.005 g/dl γ-Glu-Val-Gly), and the test was performed with n=12.

Work on `CC(C)[C@H](NC(=O)CC[C@H](N)C(=O)O)C(=O)OCC(=O)O` [γ-Glu-Val-GlyA] yielded an EC50 [1] of 140 nM.

For `CC[C@H](NC(=O)CC[C@H](N)C(=O)O)C(=O)O[C@@H](C)C(=O)O` [γ-Glu-Abu-LacA], the EC50 [1] was 102 nM.

For `NCCCC(=O)O` [GABA], the Evaluation remarks ([2]; 0.025 g/dl) was “Thickness”, the “Intensity of kokumi: Aftertaste” value ([2]; 0.025 g/dl) was 0.5 points and the “Intensity of kokumi: First and middle taste” value ([2]; 0.025 g/dl) was 0.5 points.

`CC(C)(C)[C@H](NC(=O)CC[C@H](N)C(=O)O)C(=O)OCC(=O)O` [γ-Glu-t-Leu-GlyA] showed an EC50 [1] of 50 nM.

For `CC(C)(C)[C@H](NC(=O)CC[C@H](N)C(=O)O)C(=O)NCC(=O)O` [γ-Glu-t-Leu-Gly] (γGlu-[Tle]-Gly-OH), the EC50 [1] was 43 to 77 nM.

For `CC(C)(NC(=O)CC[C@H](N)C(=O)O)C(=O)NCC(=O)O` [γ-Glu-Aib-Gly], the EC50 [1] was 349 to 1170 nM.

Compound `CC[C@H](NC(=O)CC[C@H](N)C(=O)O)C(=O)OCC(=O)O` [γ-Glu-Abu-GlyA] has an EC50 [1] of 65 to 79 nM.

Work on `N[C@@H](CCC(=O)NC1(C(=O)NCC(=O)O)CCCC1)C(=O)O` [γ-Glu-Cle-Gly] yielded an EC50 [1] of 500 to 1500 nM.

In the case of Polylysine, the Evaluation remarks ([2]; 0.001 g/dl) is reported as “Thickness”, the “Intensity of kokumi: Aftertaste” value ([2]; 0.001 g/dl) is reported as 0.5 points and the “Intensity of kokumi: First and middle taste” value ([2]; 0.001 g/dl) is reported as 0.5 points.

`C[C@H](OC(=O)[C@@H](NC(=O)CC[C@H](N)C(=O)O)C(C)(C)C)C(=O)O` [γ-Glu-t-Leu-LacA] gave an EC50 [1] of 38 nM.

In the case of `CC(O)C(=O)[O-].CC(O)C(=O)[O-].[Ca+2]` (stereo not drawn) [Calcium lactate], the Evaluation remarks ([2]; 0.25 g/dl) is reported as “Thickness”, the “Intensity of kokumi: Aftertaste” value ([2]; 0.25 g/dl) is reported as 0.5 points and the “Intensity of kokumi: First and middle taste” value ([2]; 0.25 g/dl) is reported as 0.5 points.

Work on `CC(C)(S)[C@H](NC(=O)CC[C@H](N)C(=O)O)C(=O)NCC(=O)O` [γ-Glu-Pen-Gly] yielded an EC50 [1] of 159 to 233 nM.

For Protamine, the “Intensity of kokumi: Aftertaste” value ([2]; 0.005 g/dl) was 1.0 points and the “Intensity of kokumi: First and middle taste” value ([2]; 0.005 g/dl) was 1.5 points.

Compound `CC(C)[C@H](NC(=O)CC[C@H](N)C(=O)O)C(=O)O[C@@H](C)C(=O)O` [γ-Glu-Val-LacA] has an EC50 [1] of 57 nM.
